The values that follow come from US8481537B2, “Caspase inhibitors based of pyridazinone scaffold” (LG Life Sciences Ltd., priority 2006, dated 2013).

For assay [1], the target named is T1, Caspase-8 (Homo sapiens, UniProt Q14790).
T1 construct: p10 and p20 subunits (Thornberry, N. A. et al, Nature, 1992, 356, 768) were expressed in E. coli; made in house; host or cells: E. coli
The assay is described as follows: Caspase inhibitory effect, fluorescent substrate AcDEVD-AFC. In kind it is biochemical. The conditions noted are these: pH 7.5; 2.1 nM caspase-8, 50 μM AcDEVD-AFC, 25° C., pH 7.50; read-out: Caspase-8 Kobs/[I] (converted). As for the experimental part:
Caspase-1 and caspase-8 known as cysteine proteases in the form of α2β2 were expressed, purified, and activated by modifying a method known in Thornberry, N. A. et al, Nature, 1992, 356, 768. Thornberry, N. A. Methods in Enzymology, 1994, 244, 615. Walker, N. P. C. et al. Cell, 1994, 78, 343, and caspase-9 was also purified by a similar method, and the inhibitory activity against them was tested. Briefly describing, p10 and p20 subunits (Thornberry, N. A. et al, Nature, 1992, 356, 768) were expressed in E. coli and purified by nickel column and anionic exchange chromatography to give caspase-1, caspase-8 and caspase-9. The fluorescent substrates AcYVAD-AFC for thus obtained caspase-1, AcDEVD-AFC for caspase-8, and AcLEHD-AFC for caspase-9, were used for determining specific activity of the synthesized inhibitors. The enzyme reaction was carried out at 25° C. with various concentrations of the inhibitors in a buffer solution containing 50 mM HEPES(pH 7.50), 10% (w/v) sucrose, 0.1% (w/v) CHAPS, 100 mM NaCl, 1 mM EDTA, and 10 mM DTT in the presence of 50 μM AcYVAD-AFC for 10 nM caspase-1, 50 μM AcDEVD-AFC for 2.1 nM caspase-8, and 150 μM AcLEHD-AFC for 200 nM caspase-9. The inhibitory constants Ki and Kobs of the inhibitors were determined by measuring the reaction velocity with the time lapse using a fluorescent spectrometer and by obtaining the initial rate constant. Ki was calculated from the Lineweaver Burk Plot, and Kobs from the following Equation 1. Kobs=−ln(1−At/Aoo)/t [Equation 1]
At means cleavage rate (%) at time t, and
Aoo means the maximum cleavage rate (%).
Spectra MAX GeminiXS Fluorescent Spectrometer of Molecular Device Co. was used at the excitation wavelength of 405 nm and the emission wavelength of 505 nm.

Assay [2] deals with Jurkat cell (ATCC TIB-152). The assay can be described thus: Jurkat cell apoptosis induced by Fas antibody, WST-1 method. In kind it is cell-based. The conditions noted are these: Homo sapiens, amount of alive cells by WST-1. The protocol:
The […] inhibitory activity of the inhibitors was determined by subjecting Jurkat cell (ATCC TIB-152) to apoptosis using Fas antibody (Upstate Biotech 05-201) and by detecting the color change according to the WST-1 method known in Francoeur A. M. and Assalian A. (1996) Biochemica 3, 19-25 to observe the amount of alive Jurkat cells when the cells were treated by the inhibitor. Spectra MAX 340 Spectrometer of Molecular Device Co. was used at the absorbance wavelength of 440 nm.

T1 sequence (Q14790 217-374 limits assumed, species assumed): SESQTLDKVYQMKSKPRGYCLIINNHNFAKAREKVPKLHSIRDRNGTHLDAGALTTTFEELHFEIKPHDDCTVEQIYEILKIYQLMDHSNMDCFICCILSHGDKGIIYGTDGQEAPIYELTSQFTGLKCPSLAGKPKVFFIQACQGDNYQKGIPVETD
T1 sequence (Q14790 385-479 limits assumed, species assumed): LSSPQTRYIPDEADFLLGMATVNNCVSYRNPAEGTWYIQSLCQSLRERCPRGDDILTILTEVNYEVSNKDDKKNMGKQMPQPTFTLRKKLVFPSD

As a reminder, the IC50 is the point on the concentration scale where inhibition reaches its midpoint. Low values mean greater potency in that assay, high ones weaker potency in that assay. `CC[C@@H](C(=O)N[C@@H](CC(=O)O)C(=O)COC(=O)c1c(Cl)cccc1Cl)c1ccnn(Cc2ccccc2C(C)(C)C)c1=O` (single isomer, unassigned) [Example 23-1]: the kinact/KI in assay [1] was 20000 M⁻¹ s⁻¹. In assay [2], this compound registered an IC50 of 140 nM.
Take `CC[C@H](C(=O)N[C@@H](CC(=O)O)C(=O)COC(=O)c1c(Cl)cccc1Cl)c1ccnn(Cc2ccccc2C(C)(C)C)c1=O` (single isomer, unassigned) [Example 23-2]: the kinact/KI in assay [1] is 933 M⁻¹ s⁻¹. Further, the IC50 in assay [2] came to 2480 nM.
As to `CCC(C(=O)NC(CC(=O)O)C(=O)CF)c1c(C)cnn(-c2ccccc2)c1=O` (stereo not shown) [Example 1, 5-Fluoro-3-[2-(5-methyl-3-oxo-2-phenyl-2,3-dihydro-pyridazin-4-yl)-butyrylamino]-4-oxo-pentanoic acid], the kinact/KI in assay [1] was 967 M⁻¹ s⁻¹. For the same compound, in assay [2], the half-maximal inhibitory concentration (IC50) worked out at 8000 nM.
Taken in the same sequence, the figures for `CCC(C(=O)NC(CC(=O)O)C(=O)CF)c1c(C)cnn(Cc2ccccc2)c1=O` (stereo not shown) [Example 2, 3-[2-(2-Benzyl-5-methyl-3-oxo-2,3-dihydro-pyridazin-4-yl)-butyrylamino]-5-f luoro-4-oxo-pentanoic acid] were 7330 M⁻¹ s⁻¹ and 1480 nM.
In the case of `CCC(C(=O)NC(CC(=O)O)C(=O)CF)c1ccnn(Cc2ccccc2)c1=O` (stereo not shown) [Example 3, 3-[2-(2-Benzyl-3-oxo-2,3-dihydro-pyridazin-4-yl)-butyrylamino]-5-fluoro-4-o xo-pentanoic acid], in assay [1], the kinact/KI was 21700 M⁻¹ s⁻¹. The compound also had an IC50 in assay [2] of 460 nM.
Consider `CCC(C(=O)NC(CC(=O)O)C(=O)CF)c1c(Cl)cnn(Cc2ccccc2)c1=O` (stereo not shown) [Example 4, 3-[2-(2-Benzyl-5-chloro-3-oxo-2,3-dihydro-pyridazin-4-yl)-butyrylamino]-5-fl uoro-4-oxo-pentanoic acid], for which the kinact/KI in assay [1] was 6830 M⁻¹ s⁻¹. The same compound had a concentration for half-maximal inhibition (IC50) in assay [2] of 390 nM.
With `CCC(C(=O)NC(CC(=O)O)C(=O)CF)c1c(OC)cnn(Cc2ccccc2)c1=O` (stereo not shown) [Example 5, 3-[2-(2-Benzyl-5-methoxy-3-oxo-2,3-dihydro-pyridazin-4-yl)-butyrylamino]-5-fluoro-4-oxo-pentanoic acid], the kinact/KI in assay [1] is 3830 M⁻¹ s⁻¹. The compound further returned an IC50 in assay [2] of 2070 nM.
On to `CCC(C(=O)NC(CC(=O)O)C(=O)CF)c1ccnn(Cc2ccccc2C(C)(C)C)c1=O` (stereo not shown) [Example 6, 3-2-[2-(2-tert-Butyl-benzyl)-3-oxo-2,3-dihydro-pyridazin-4-yl]-butyrylamino-5-fluoro-4-oxo-pentanoic acid], for which, in assay [1], the kinact/KI is 63300 M⁻¹ s⁻¹. Besides, the IC50 in assay [2] is 42 nM.
With `CCC(C(=O)NC(CC(=O)O)C(=O)CF)c1ccnn(Cc2cccc(C(C)(C)C)c2)c1=O` (stereo not shown) [Example 7, 3-2-[2-(3-tert-Butyl-benzyl)-3-oxo-2,3-dihydro-pyridazin-4-yl]-butyrylamino-5-fluoro-4-oxo-pentanoic acid], the kinact/KI in assay [1] is 23300 M⁻¹ s⁻¹. In addition, in assay [2], the half-maximal inhibitory concentration (IC50) amounted to 35 nM.
For `CCC(C(=O)NC(CC(=O)O)C(=O)CF)c1ccnn(Cc2ccccc2C)c1=O` (stereo not shown) [Example 8, 5-Fluoro-3-2-[2-(2-methyl-benzyl)-3-oxo-2,3-dihydro-pyridazin-4-yl]-butyryl amino-4-oxo-pentanoic acid] the same measures were 20000 M⁻¹ s⁻¹ and 820 nM.
Consider `CCC(C(=O)NC(CC(=O)O)C(=O)CF)c1ccnn(Cc2cccc(C)c2)c1=O` (stereo not shown) [Example 9, 5-Fluoro-3-2-[2-(3-methyl-benzyl)-3-oxo-2,3-dihydro-pyridazin-4-yl]-butyryl amino-4-oxo-pentanoic acid], for which the kinact/KI in assay [1] is 50000 M⁻¹ s⁻¹. Besides, in assay [2], the half-maximal inhibitory concentration (IC50) came to 880 nM.
As to `CCC(C(=O)NC(CC(=O)O)C(=O)CF)c1ccnn(Cc2cccc(OC)c2)c1=O` (stereo not shown) [Example 10, 5-Fluoro-3-2-[2-(3-methoxy-benzyl)-3-oxo-2,3-dihydro-pyridazin-4-yl]-butyr ylamino-4-oxo-pentanoic acid], in assay [1], the kinact/KI was 20000 M⁻¹ s⁻¹. The compound further came in with an IC50 in assay [2] of 550 nM.
On to `CCC(C(=O)NC(CC(=O)O)C(=O)CF)c1ccnn(Cc2cccc3ccccc23)c1=O` (stereo not shown) [Example 11, 5-Fluoro-3-[2-(2-naphthalen-1-ylmethyl-3-oxo-2,3-dihydro-pyridazin-4-yl)-butyrylamino]-4-oxo-pentanoic acid], for which, in assay [1], the kinact/KI was 56700 M⁻¹ s⁻¹. This compound yielded an IC50 in assay [2] of 170 nM.
For `CCC(C(=O)NC(CC(=O)O)C(=O)CF)c1ccnn(Cc2ccc3ccccc3c2)c1=O` (stereo not shown) [Example 12, 5-Fluoro-3-[2-(2-naphthalen-2-ylmethyl-3-oxo-2,3-dihydro-pyridazin-4-yl)-butyrylamino]-4-oxo-pentanoic acid] the same measures were 15500 M⁻¹ s⁻¹ and 290 nM.
Taken in the same sequence, the figures for `CCC(C(=O)NC(CC(=O)O)C(=O)CF)c1ccnn(Cc2coc(C)n2)c1=O` (stereo not shown) [Example 13, 5-Fluoro-3-2-[2-(2-methyl-oxazol-4-ylmethyl)-3-oxo-2,3-dihydro-pyridazin-4-yl]-butyrylamino-4-oxo-pentanoic acid] were 11500 M⁻¹ s⁻¹ and 3760 nM.
`CCC(C(=O)NC(CC(=O)O)C(=O)CF)c1ccnn(Cc2csc(C)n2)c1=O` (stereo not shown) [Example 14, 5-Fluoro-3-2-[2-(2-methyl-thiazol-4-ylmethyl)-3-oxo-2,3-dihydro-pyridazin-4-yl]-butyrylamino-4-oxo-pentanoic acid]: the kinact/KI in assay [1] is 14000 M⁻¹ s⁻¹. The compound further yielded an IC50 in assay [2] of 730 nM.
Regarding `CCC(C(=O)NC(CC(=O)O)C(=O)CF)c1ccnn(Cc2c(C)noc2C)c1=O` (stereo not shown) [Example 15, 3-2-[2-(3,5-Dimethyl-isoxazol-4-ylmethyl)-3-oxo-2,3-dihydro-pyridazin-4-yl]-butyrylamino-5-fluoro-4-oxo-pentanoic acid], the kinact/KI in assay [1] was 12000 M⁻¹ s⁻¹. For the same compound, the midpoint of inhibition in assay [2], the IC50, lay at 800 nM.
Taken in the same sequence, the figures for `CCC(C(=O)NC(CC(=O)O)C(=O)CF)c1ccnn(CC2CCCCC2)c1=O` (stereo not shown) [Example 16, 3-[2-(2-Cyclohexylmethyl-3-oxo-2,3-dihydro-pyridazin-4-yl)-butyrylamino]-5-fluoro-4-oxo-pentanoic acid] were 12300 M⁻¹ s⁻¹ and 90 nM.
Regarding `CCC(C(=O)NC(CC(=O)O)C(=O)CF)c1ccnn(Cc2nccc3ccccc23)c1=O` (stereo not shown) [Example 17, 5-Fluoro-3-[2-(2-isoquinolin-1-ylmethyl-3-oxo-2,3-dihydro-pyridazin-4-yl)-butyrylamino]-4-oxo-pentanoic acid], the kinact/KI in assay [1] is 25000 M⁻¹ s⁻¹. This compound also displayed an IC50 in assay [2] of 130 nM.
Regarding `CCC(C(=O)NC(CC(=O)O)C(=O)CF)c1ccnn(Cc2ccccc2Cl)c1=O` (stereo not shown) [Example 18, 3-{2-[2-(2-Chloro-benzyl)-3-oxo-2,3-dihydro-pyridazin-4-yl]-butyrylamino}-5-fluoro-4-oxo-pentanoic acid], in assay [1], the kinact/KI is 73300 M⁻¹ s⁻¹. Moreover, the midpoint of inhibition in assay [2], the IC50, lay at 42 nM.
Regarding `CCC(C(=O)NC(CC(=O)O)C(=O)CF)c1ccnn(Cc2cccc(Cl)c2)c1=O` (stereo not shown) [Example 19, 3-{2-[2-(3-Chloro-benzyl)-3-oxo-2,3-dihydro-pyridazin-4-yl]-butyrylamino}-5-fluoro-4-oxo-pentanoic acid], the kinact/KI in assay [1] is 28300 M⁻¹ s⁻¹. In assay [2], this compound registered an IC50 of 35 nM.
In the case of `CCC(C(=O)NC(CC(=O)O)C(=O)CF)c1ccnn(Cc2cccc(Br)c2)c1=O` (stereo not shown) [Example 20, 3-{2-[2-(3-Bromo-benzyl)-3-oxo-2,3-dihydro-pyridazin-4-yl]-butyrylamino}-5-fluoro-4-oxo-pentanoic acid], the kinact/KI in assay [1] was 18300 M⁻¹ s⁻¹. In assay [2], this compound showed a half-inhibitory concentration (IC50) of 43 nM.
`CC[C@H](C(=O)N[C@@H](CC(=O)O)C(=O)COc1c(F)ccc(F)c1F)c1ccnn(Cc2ccccc2C(C)(C)C)c1=O` [Example 26-2, (S)-3-{(S)-2-[2-(2-tert-Butyl-benzyl)-3-oxo-2,3-dihydro-pyridazin-4-yl]-butyrylamino}-4-oxo-5-(2,3,6-trifluoro-phenoxy)-pentanoic acid]: the kinact/KI in assay [1] is 7830 M⁻¹ s⁻¹.
Turning to `CC[C@H](C(=O)N[C@@H](CC(=O)O)C(=O)COc1c(F)cccc1F)c1ccnn(Cc2ccccc2C(C)(C)C)c1=O` [Example 27-2, (S)-3-{(S)-2-[2-(2-tert-Butyl-benzyl)-3-oxo-2,3-dihydro-pyridazin-4-yl]-butyrylamino}-5-(2,6-difluoro-phenoxy)-4-oxo-pentanoic acid], the kinact/KI in assay [1] is 3170 M⁻¹ s⁻¹.
